We go through 1 molecule from patent US20230097801A1, “METHODS OF INCREASING CELL PHAGOCYTOSIS” (National Health Research Institutes, priority 2021, published 2023).

Data set [1] relates to CD47. The data set can be described thus: Flow cytometry, anti-human CD47 CC2C6 antibody binding on SK-OV-3 cell surface. The format is cell-based. As for the experimental part:
(§1) Binding between CD47 and SIRPα was studied by measuring the level of CD47 binding using any suitable method. Flow cytometric analysis is useful to quantify the level of binding of CD47 to antibody CC2C6, which is then subjected to an immune-staining procedure using fluorochrome-conjugated secondary antibody followed by analysis of the immune-staining signal with a flow cytometry instrument to obtain the level of the CD47-CC2C6 binding. In another method, analysis of CD47 is performed using SIRPα-Fc formed from SIRPα fused with human IgG1, which is then subjected to an immune-staining procedure using fluorochrome-conjugated secondary antibody against human IgG1, followed by analysis of the immune-staining signal. SIRPα is expressed on the surface of a myeloid cell such as macrophage, monocyte, neutrophil, or dendritic cell. Alternatively, SIRPα is fused with human IgG1 to form a SIRPα-Fc recombinant protein. […] An anti-cancer agent (e.g., rituximab) can be used together with a compound of formula (I). Useful anti-cancer agents are described above including anti-PD-L1 antibodies, anti-CD20 antibodies, anti-HER2 antibodies, anti-EGFR antibodies, and anti-CD47 antibodies. Other suitable anti-cancer agents are chemotherapeutic agents such as doxorubicin, epirubicin, idarubicin, methotrexate, mitoxantrone, oxaliplatin, and cyclophosphamide.
SK-OV-3 cells were purchased from ATCC (Manassas, Va.). SK-OV-3 cells were maintained at 37° C. under 5% CO2 in McCoy's 5a medium (Gibco, ThermoFisher, Waltham, Mass.) with 10% fetal bovine serum (FBS) (Sigma-Aldrich, St Louis, Mo.), and 2 mM L-glutamine.
(§2) Antibody conjugates and extracellular domain of SIRPα used to analyze cell surface CD47 binding include anti-human CD47 CC2C6, 2D3, recombinant human SIRPα/CD172a Fc chimer protein, and anti-human IgG Fc. To determine inhibition of CD47 binding, cancer cells were treated with compounds of formula (I) at various concentrations for 4 days. Thereafter, the cells were washed with PBS containing 0.5% BSA (FACS buffer) followed by incubation with fluorochrome-labeled antibodies to human CD47 (i.e., CC2C6 and 2D3) at 1:50 dilution in FACS buffer for 30 minutes at 4° C. Compounds of formula (I) produced a dose-dependent inhibition of anti-CD47 CC2C6 antibody that recognized CD47 and SIRPα binding site on the tumor cell surface including B-cell lymphoma Raji cells, colon cancer cells DLD-1, and ovarian cancer SK-OV-3 cells (see FIGS. 1A, 1B, and 1C, respectively).
A general note: A flow cytometer gives signals particle by particle.

Data set [2] can be described thus: Mouse pk profiles. In kind it is in vivo.
Data set [3] relates to CD47. The data set can be described thus: Flow cytometry, anti-human CD47 CC2C6 antibody binding on Raji cell surface. In kind it is cell-based. As to the method:
as §1
Human B-cell lymphoma Raji cells were purchased from BCRC, Taiwan. Raji cells were maintained at 37° C. under 5% CO2 in RPMI-1640 medium (Hyclone, Marlborough, Mass.) supplemented with 10% fetal bovine serum (FBS) (SAFC, Sigma-Aldrich, St. Louis, Mo.) containing 2 mM L-glutamine (Hyclone, Marlborough, Mass.), 10 mM HEPES (Hyclone, Marlborough, Mass.) and 1 mM sodium pyruvate (Hyclone, Marlborough, Mass.).
as §2

The subject of data set [4] is CD47. The data set can be described thus: Pharmacodynamic study, CC2C6 binding and total CD47 on Raji xenograft tumor cells. The format is in vivo, human. To be noted: 100 mg/kg p.o. QD*5, 10 days. As to the method:
A pharmacodynamic study was also conducted to evaluate target engagement of Compound 34. In this study, one million Raji cells in culture medium and matrigel (1:1, v/v) were injected subcutaneously into the left flank region of each mouse. Treatments were initiated after randomization with inclusion of tumors at approximately 150 mm^3. A dosing vehicle for Compound 34 was prepared using 10% DMA: 40% PEG400: 50% (1% CMC) (v/v/v) and was dosed orally (p.o.) at 100 mg/kg once a day and 5 days a week (Q.D.*5). The mice were treated with either the vehicle control or Compound 34 for 10 days. They were then sacrificed 24 hours after the last dose (n=4 per group). Tumors were harvested and isolated into single cell suspensions for flow cytometry analysis. Unexpectedly, Compound 34 reduced 56% of anti-CD47 CC2C6 antibody binding on the tumor cell surface, as indicated by a decreasing level of anti-CC2C6^+ tumor cells in the Compound 34-treated mice as compared to the vehicle-treated mice.
(A xenograft is tissue or cells of one species grown in another, often human tumour cells in immunodeficient mice.)

The nature of data set [5]: Plasma and tumor concentrations in Raji xenograft mice. In kind it is in vivo. To be noted: for concentration at 2 h: 2 hours after the last dose. As for the experimental part:
A pharmacokinetic study was conducted to evaluate plasma and tumor concentrations of Compound 34 using human B-cell lymphoma Raji xenograft tumors. One million Raji cells in culture medium and matrigel (1:1, v/v) were injected subcutaneously into the left flank region of each mouse. Treatments were initiated after randomization with inclusion of tumors at approximately 90 mm^3. A dosing vehicle for Compound 34 was prepared using 10% DMA: 40% PEG400: 50% (1% CMC) (v/v/v) and was dosed orally (p.o.) at 100 mg/kg once a day and 5 days a week (Q.D.*5). The mice were treated with either the vehicle control or Compound 34 for 3 weeks. They were sacrificed 2, 4, 8, or 24 hours after the last dose (n=4 per time point). Tumor and plasma were collected to determine concentrations of Compound 34.

Data set [6] deals with CD47. The data set can be described thus: Flow cytometry, anti-human CD47 CC2C6 antibody binding on DLD-1 cell surface. The format is cell-based. As to the method:
as §1
Human colon cancer DLD-1 cells were obtained from NHRI IBPR HTS Lab, Taiwan. DLD-1 cells were maintained under the same conditions described immediately above.
as §2

Entries after “also recorded” stand apart in the source; their conditions may differ. Like-named read-outs stand apart in the source and are kept apart here.

As usually defined, the IC50 is the point on the concentration scale where inhibition reaches its midpoint. One may read the clearance as the rate of elimination divided by the concentration. For orientation: Cmax means the peak of the concentration-time curve. By bioavailability is commonly meant dose-corrected exposure relative to a reference, in per cent. A higher bioavailability goes with good availability. For the molecule `O=C1NC[C@H](c2ccc(-c3csc(C(F)(F)F)c3)c(F)c2F)N1c1ccc2[nH]cnc2c1` [Compound 34], the IC50 in data set [1] (Ovarian Cancer (SK-OV3 cells), 4 days treatment, read-out: IC50, inhibition of CC2C6 binding) was found to be 190 nM; in data set [3] (B-cell Lymphoma (Raji cells), 4 days treatment, read-out: IC50, inhibition of CC2C6 binding) it was 1100 nM; in data set [6] (Colon Cancer (DLD-1 cells), 4 days treatment, read-out: IC50, inhibition of CC2C6 binding), 580 nM. In addition, the “inhibition of binding of anti-human CD47 antibody CC2C6 (in words)” value in data set [1] (SK-OV-3 cells) is “effectively inhibited”; in data set [3] (Raji cells) it was “specifically affected anti-CD47 CC2C6 antibody; also recorded: effectively inhibited”; in data set [6] (DLD-1 cells) it was “effectively inhibited”. For the same molecule, the entries for the “AUC Plasma” value in data set [2] (IV (2 mg/kg)) and in data set [2] (PO (30 mg/kg)) were 8869 ng·h/g and 56451 ng·h/g, respectively. Moreover, in data set [2] (plasma, IV (2 mg/kg)), the clearance came to 4.6 mL/min/kg. Besides, the Cmax in data set [2] (plasma, PO (30 mg/kg)) is 1980 ng/mL. The molecule further showed a bioavailability in data set [2] (plasma, PO (30 mg/kg) vs IV (2 mg/kg)) of 43%. Besides, the half-life in data set [2] (plasma, PO (30 mg/kg), read-out: T1/2 (h) Plasma (converted)) was 9.3 h. Also, the “total CD47 expression level on the tumor cell surface” value in data set [4] is “did not affect a total CD47 expression level; also recorded: without affecting a total CD47 expression level”. Besides, the tumor concentration in data set [5] (100 mg/kg p.o. QD*5 for 3 weeks, next 22 hours (2 to 24 hours after the last dose)) was ≥ 27,507 ng/g tissue weight. Also, the concentration at 2 h in data set [5] (mouse, plasma, oral, 100 mg/kg p.o. QD*5 for 3 weeks, read-out: plasma concentration) was 18600 ng/mL; in data set [5] (mouse, tumor, oral, 100 mg/kg p.o. QD*5 for 3 weeks, read-out: tumor concentration) it was 29700 ng/g. Besides, the concentration at 24 h in data set [5] (mouse, plasma, oral, 100 mg/kg p.o. QD*5 for 3 weeks, 24 hours after the last dose) turned out to be 5360 ng/mL. Further, the “tumor concentrations versus plasma (in words)” value in data set [5] (within 24 hours post treatment) is listed as “much higher than those in plasma”.
